Reference: patent US20080138390A1, “Transdermal Delivery System For Use With Basic Permeation Enhancers” (priority 2004, published 2008)

What was measured:
[1] = In vitro skin permeation of diclofenac sodium from transdermal systems, Franz diffusion cells; format: in vitro ADME, human; conditions: for cumulative amount of diclofenac that permeated through the skin: human cadaver skin, 32° C., 24-hour study
[2] = In vitro skin permeation of testosterone from transdermal systems, Franz diffusion cells; conditions: for cumulative amount of testosterone that permeated through the skin: human cadaver skin, receiver 30% NMP
Procedure: An in vitro skin permeation study was conducted using two testosterone transdermal delivery systems.
The backing/active agent-in-adhesive film was then pressed onto the skin with the adhesive side facing the stratum corneum. […] Three diffusion cells were used for each formulation. The receiver solution was 30% N-methyl pyrrolidone (NMP) in 70% DI H2O (v/v). The entire receiver solution was collected and replaced with fresh 30% NMP solution at each time point. The receiver solution collected was analyzed by HPLC to determine the concentration of testosterone. The cumulative amount of testosterone that permeated across the human cadaver skin was calculated using the measured testosterone concentrations in the receiver solutions, and the results were plotted versus time (FIG. 3).

SMILES | cumulative amount of diclofenac that permeated through the skin ([1]; PVPP powder added (Formulation B by Table 1)) | cumulative amount of diclofenac permeated relative to absence of the powder ([1]; PVPP powder added vs no PVPP powder) | cumulative amount of diclofenac that permeated through the skin ([1]; PVPP powder in combination with polyethylene oxide (Formulation C by Table 1)) | cumulative amount of diclofenac that permeated through the skin ([1]; no PVPP powder added (Formulation D by Table 1)) | cumulative amount of diclofenac that permeated through the skin ([1]; powdered starch, poly(acrylamide-acrylic acid) sodium salt instead of PVPP (Formulation A by Table 1)) | cumulative amount of testosterone that permeated through the skin ([2]; 0.75 g PVPP powder added (Formulation J by Table 5)) | cumulative amount of testosterone permeated relative to absence of the powder ([2]; 0.75 g PVPP powder vs no PVPP powder) | cumulative amount of testosterone that permeated through the skin ([2]; no PVPP powder added (Formulation I by Table 5))
O=C(O)Cc1ccccc1Nc1c(Cl)cccc1Cl [diclofenac, diclofenac sodium] | 2.41 mg/cm^2 | more than five times | 2.05 mg/cm^2 | 0.48 mg/cm^2 | 1.03 mg/cm^2 |  |  | 
C[C@]12CC[C@H]3[C@@H](CCC4=CC(=O)CC[C@@]43C)[C@@H]1CC[C@@H]2O [testosterone] |  |  |  |  |  | 0.70 mg/cm^2 | almost twice | 0.40 mg/cm^2
